The values that follow come from patent publication US20170136010A1, “ORAL SOLID PREPARATION COMPRISING ARIPIPRAZOLE AND METHOD FOR PRODUCING ORAL SOLID PREPARATION COMPRISING ARIPIPRAZOLE” (OTSUKA PHARMACEUTICAL CO., LTD, priority 2013, published 2017).

Molecules are shown by their SMILES.

Holding throughout (format): physicochemical
Data set [1] can be described thus: Mean particle size by laser diffraction scattering particle size distribution analyzer. The note with it: volume mean diameter, dry. The method, then: The term “mean particle size” refers to volume mean diameter as calculated from the particle size distribution measured by a laser scattering particle size distribution analyzer analyzer.
The particle size of the resulting finely milled powder of highly hygroscopic aripiprazole anhydrous crystal was measured using Dry Unit 2000, which was a laser diffraction scattering particle size distribution analyzer (Laser Micron Sizer (LMS-2000e)), and the mean particle size was calculated from the obtained measurement results. […] The measurement conditions using a laser diffraction scattering particle size distribution analyzer were as follows: Particle refractive index: 1.750, imaginary part: 0.1, and dispersive pressure: 0.15 MPa.

The nature of data set [2]: Hygroscopic test of finely milled powder, water content by Karl Fischer method. The note with it: for Water content level (wt %), hygroscopic test of finely milled aripiprazole crystal, 24 hours: 60° C., humidity 100%. Here is the method:
The finely milled powder obtained above was evaluated by a hygroscopic test according to the following method.
About 1 g of milled powder was weighed in a weighing bottle with a diameter of 5 cm, allowed to stand in water/desiccator in which the temperature and humidity were respectively set to 60° C. and 100%, and then allowed to stand in MgCl2.6H2O saturated salt solution/desiccator having a room temperature and humidity of about 30% for 24 hours, Thereafter, the water content was measured. The water content was measured according to the Karl Fischer method by accurately measuring 0.1 g of a sample.

The nature of data set [3]: Hygroscopic test of aripiprazole anhydrous crystal, water content by Karl Fischer coulometric titration. Particulars: for Water content level (wt %) after humidification: after 24 hours at 60° C. in desiccator including water; for Water content level (wt %) before humidification: before hygroscopic test. The method, then: About 1 g of aripiprazole obtained in the Synthesis Example was weighed in each of the weighing bottles having a diameter of about 5 cm. Each of the bottles was sealed with Kimwipe, and allowed to stand in a desiccator including water. The desiccator was placed in an oven at 60° C., and allowed to stand for 24 hours.
The weighing bottles were removed from the desiccator, and allowed to stand for 16 hours or more in a desiccator (room temperature/about 30% RH) including an MgCl2/6H2O saturated salt solution, thereby removing attached excess water. The water contents of the samples before and after the hygroscopic test were measured according to the following test procedure.
0.1 g of the aripiprazole obtained in the Synthesis Example and 0.1 g of the aripiprazole obtained after the hygroscopic test were accurately weighed. Using a moisture meter (CA-200) produced by Mitsubishi Chemical Analytech Co., Ltd., a test was performed according to the coulometric titration method, which is a water content measurement method (Karl Fischer method).

`O=C1CCc2ccc(OCCCCN3CCN(c4cccc(Cl)c4Cl)CC3)cc2N1` [compound 3, 7-{4-[4-(2,3-dichlorophenyl)-1-piperazinyl]butoxy}-3,4-dihydrocarbostyril] came in with a Mean particle size in data set [1] of 8.9 μm. Besides, in data set [2], the “Water content level (wt %), hygroscopic test of finely milled aripiprazole crystal, 0 hour” value is reported as 0.24 wt % and the “Water content level (wt %), hygroscopic test of finely milled aripiprazole crystal, 24 hours” value stood at 3.97 wt %.
In the same order, the values of `O=C1CCc2ccc(OCCCCN3CCN(c4cccc(Cl)c4Cl)CC3)cc2N1` [compound 4, 7-{4-[4-(2,3-dichlorophenyl)-1-piperazinyl]butoxy}-3,4-dihydrocarbostyril] are 9.6 μm, 0.29 wt % and 3.90 wt %.
In the same order, the values of `O=C1CCc2ccc(OCCCCN3CCN(c4cccc(Cl)c4Cl)CC3)cc2N1` [compound 2, 7-{4-[4-(2,3-dichlorophenyl)-1-piperazinyl]butoxy}-3,4-dihydrocarbostyril] are 5.1 μm, 0.21 wt % and 3.69 wt %.
In the same order, the values of `O=C1CCc2ccc(OCCCCN3CCN(c4cccc(Cl)c4Cl)CC3)cc2N1` [Reference Example 1, 7-{4-[4-(2,3-dichlorophenyl)-1-piperazinyl]butoxy}-3,4-dihydrocarbostyril] are 2.6 μm, 0.10 wt % and 3.37 wt %.
Consider `O=C1CCc2ccc(OCCCCN3CCN(c4cccc(Cl)c4Cl)CC3)cc2N1` [Lot No. 2, 7-{4-[4-(2,3-dichlorophenyl)-1-piperazinyl]butoxy}-3,4-dihydrocarbostyril], for which, in data set [3], the “Water content level (wt %) after humidification” value was 2.759 wt % and the “Water content level (wt %) before humidification” value is given as 0.032 wt %.
On the same counts, the results for `O=C1CCc2ccc(OCCCCN3CCN(c4cccc(Cl)c4Cl)CC3)cc2N1` [Lot No. 1, 7-{4-[4-(2,3-dichlorophenyl)-1-piperazinyl]butoxy}-3,4-dihydrocarbostyril] are 0.809 wt % and 0.003 wt %.
